From US20240360146A1, “BRUTON'S TYROSINE KINASE AND MUTANT DEGRADER, COMPOSITION AND APPLICATION THEREOF” (HANGZHOU HEALZEN THERAPEUTICS CO., LTD., priority 2021, published 2024)

target: T1, BTK (Homo sapiens, UniProt Q06187); assay: BTK degradation activity test in Mino cells; type: cell-based; conditions: 16 h incubation, Western blot or Elisa
T1 construct: endogenous in cells; host or cells: Mino cells
Method in brief: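 Mino cells treated with a concentration series of compound for 16 h, then lysed; total protein by BCA. BTK quantified by Western blot or ELISA, degradation rate calculated against blank control, and DC50 fitted from the degradation curve.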

T1 sequence (Q06187 whole entry): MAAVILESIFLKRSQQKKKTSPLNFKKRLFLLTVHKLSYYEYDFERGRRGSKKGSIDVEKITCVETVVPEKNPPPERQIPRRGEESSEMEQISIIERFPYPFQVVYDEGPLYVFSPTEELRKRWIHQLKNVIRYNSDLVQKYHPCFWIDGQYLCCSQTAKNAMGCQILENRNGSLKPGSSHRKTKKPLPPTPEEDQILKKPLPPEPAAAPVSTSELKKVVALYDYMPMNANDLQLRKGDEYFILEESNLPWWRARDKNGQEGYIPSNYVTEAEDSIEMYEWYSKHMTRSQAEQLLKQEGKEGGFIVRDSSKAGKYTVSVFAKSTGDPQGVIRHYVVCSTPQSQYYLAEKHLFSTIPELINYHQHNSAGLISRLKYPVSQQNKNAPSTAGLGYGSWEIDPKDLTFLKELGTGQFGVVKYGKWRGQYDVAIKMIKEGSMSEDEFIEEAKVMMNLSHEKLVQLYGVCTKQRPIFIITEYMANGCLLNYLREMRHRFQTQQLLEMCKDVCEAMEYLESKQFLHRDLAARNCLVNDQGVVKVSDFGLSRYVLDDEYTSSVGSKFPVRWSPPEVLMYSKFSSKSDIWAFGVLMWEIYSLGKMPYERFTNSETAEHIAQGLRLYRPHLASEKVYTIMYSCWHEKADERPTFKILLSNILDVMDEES

DC50, < 1 nM:
CN1CCN([C@@H]2CCCN(c3nnc(C(N)=O)c(Nc4ccc(N5CCN(CC6CCN(c7ccc(N8CCC(=O)NC8=O)c(C(N)=O)c7)CC6)CC5)c(F)c4)n3)C2)C1=O [Compound 233, (R)-5-((4-(4-((1-(3-carbamoyl-4-(2,4-dioxotetrahydropyrimidin-1(2H)-yl)phenyl)piperidin-4-yl)methyl)piperazin-1-yl)-3-fluorophenyl)amino)-3-(3-(3-methyl-2-oxoimidazolidin-1-yl)piperidin-1-yl)-1,2,4-triazin-6-carboxamide]
CC(C)N1CCN(C2CCCN(c3nnc(C(N)=O)c(Nc4ccc(C5CCN(CC6CCN(c7ccc8c(c7)C(=O)N(C7CCC(=O)NC7=O)C8=O)CC6)CC5)cc4)n3)C2)C1=O (stereo not drawn) [Compound 055, 5-((4-(1-((1-(2-(2,6-dioxopiperidin-3-yl)-1,3-dioxoisoindol-5-yl)piperidin-4-yl)methyl)piperidin-4-yl)phenyl)amino)-3-(3-(3-isopropyl-2-oxoimidazolin-1-yl)piperidin-1-yl)-1,2,4-triazin-6-carboxamide]
CC1(c2ccc(Nc3nc(N4CCCC(N5CC6CCCCN6C5=O)C4)cnc3C(N)=O)cc2)CCN(C2CN(c3ccc4c(c3)C(=O)N(C3CCC(=O)NC3=O)C4=O)C2)CC1 (stereo not drawn) [Compound 006, 3-((4-(1-(1-(2-(2,6-dioxopiperidin-3-yl)-1,3-dioxoisoindol-5-yl)azetidin-3-yl)-4-methylpiperidin-4-yl)phenyl)amino)-5-(3-(3-oxohexahydroimidazo[1,5-a]pyridin-2(3H)-yl)piperidin-1-yl)pyrazin-2-carboxamide]
Cc1cc(C#CCN2CCN(c3ccc(Nc4nc(N5CCC[C@@H](N6CCN(C)C6=O)C5)nnc4C(N)=O)cc3F)CC2)ccc1C(=O)NC1CCC(=O)NC1=O (stereo partly drawn) [Compound 226, 5-((4-(4-(3-(4-((2,6-dioxopiperidin-3-yl)carbamoyl)-3-methylphenyl)propan-2-yn-1-yl)piperazin-1-yl)-3-fluorophenyl)amino)-3-((R)-3-(3-methyl-2-oxoimidazolidin-1-yl)piperidin-1-yl)-1,2,4-triazin-6-carboxamide]
Cc1cc(N2CCC(CN3CCC(c4ccc(Nc5nc(N6CCC[C@@H](N7CCN(C)C7=O)C6)nnc5C(N)=O)cc4CO)CC3)CC2)ccc1N1CCC(=O)NC1=O [Compound 237, (R)-5-((4-(1-((1-(4-(2,4-dioxotetrahydropyrimidin-1(2H)-yl)-3-methylphenyl)piperidin-4-yl)methyl)piperidin-4-yl)-3-(hydroxymethyl)phenyl)amino)-3-(3-(3-methyl-2-oxoimidazolidin-1-yl)piperidin-1-yl)-1,2,4-triazin-6-carboxamide]
CN1CCN(C2CCCN(c3nnc(C(N)=O)c(Nc4ccc(C5CCN(CC6CCN(c7ccc8c(c7)C(=O)N(C7CCC(=O)NC7=O)C8=O)CC6)CC5)cc4)n3)C2)C1=O (stereo not drawn) [Compound 053, 5-((4-(1-((1-(2-(2,6-dioxopiperidin-3-yl)-1,3-dioxoisoindol-5-yl)piperidin-4-yl)methyl)piperidin-4-yl)phenyl)amino)-3-(3-(3-methyl-2-oxoimidazolin-1-yl)piperidin-1-yl)-1,2,4-triazin-6-carboxamide]
NC(=O)c1nnc(N2CCCC(N3CCN(c4ccccc4)C3=O)C2)nc1Nc1ccc(C2CCN(CC3CCN(c4ccc5c(c4)CN(C4CCC(=O)NC4=O)C5=O)CC3)CC2)cc1 (stereo not drawn) [Compound 100, 5-((4-(1-((1-(2-(2,6-dioxopiperidin-3-yl)-1-oxoisoindol-5-yl)piperidin-4-yl)methyl)piperidin-4-yl)phenyl)amino)-3-(3-(2-oxo-3-phenylimidazolin-1-yl)piperidin-1-yl)-1,2,4-triazin-6-carboxamide]
CCc1nc(C(N)=O)c(Nc2ccc(C3(C)CCN(C4CN(c5ccc6c(c5)C(=O)N(C5CCC(=O)NC5=O)C6=O)C4)CC3)cc2)nc1N1CCCC(N2CCN(C)C2=O)C1 (stereo not drawn) [Compound 007]
CN1CCN([C@@H]2CCCN(c3nnc(C(N)=O)c(Nc4ccc(N5CCN(CC#Cc6ccc(C(=O)NC7CCC(=O)NC7=O)s6)CC5)c(F)c4)n3)C2)C1=O (stereo partly drawn) [Compound 230, 5-((4-(4-(3-(5-((2,6-dioxopiperidin-3-yl)carbamoyl)thiophen-2-yl)propan-2-yn-1-yl)piperazin-1-yl)-3-fluorophenyl)amino)-3-((R)-3-(3-methyl-2-oxoimidazolidin-1-yl)piperidin-1-yl)-1,2,4-triazin-6-carboxamide]
CN1CCN(C2CC3CC2N(c2ccc(C(N)=O)c(Nc4ccc(C5CCN(C6CN(c7ccc8c(c7)C(=O)N(C7CCC(=O)NC7=O)C8=O)C6)CC5)cc4)n2)C3)C1=O (stereo not drawn) [Compound 048, 2-((4-(1-(1-(2-(2,6-dioxopiperidin-3-yl)-1,3-dioxoisoindolin-5-yl)azetidin-3-yl)piperidin-4-yl)phenyl)amino)-6-(-6-(3-methyl-2-oxoimidazolin-1-yl)-2-azabicyclo[2.2.1]heptan-2-yl)nicotinamide]
NC(=O)c1nnc(N2CCCC(N3CCN(c4ccccc4)C3=O)C2)nc1Nc1ccc(C2CCN(CC3CCN(c4ccc5c(c4)C(=O)N(C4CCC(=O)NC4=O)C5=O)CC3)CC2)cc1 (stereo not drawn) [Compound 064, 5-((4-(1-((1-(2-(2,6-dioxopiperidin-3-yl)-1,3-dioxoisoindol-5-yl)piperidin-4-yl)methyl)piperidin-4-yl)phenyl)amino)-3-(3-(2-oxo-3-phenylimidazolin-1-yl)piperidin-1-yl)-1,2,4-triazin-6-carboxamide]
NC(=O)c1ncc(N2CCCC(N3CCN(C4CCCC4)C3=O)C2)nc1Nc1ccc(N2CCC(C#CCN3CCN(c4ccc5c(c4)C(=O)N(C4CCC(=O)NC4=O)C5=O)CC3)CC2)cc1 (stereo not drawn) [Compound 029, 5-(3-(3-cyclopentyl-2-oxoimidazolin-1-yl)piperidin-1-yl)-3-((4-(4-(3-(4-(2-(2,6-dioxopiperidin-3-yl)-1,3-dioxoisoindolin-5-yl)piperazin-1-yl)propan-1-yne-1-yl)piperidin-1-yl)phenyl)amino)pyrazin-2-carboxamide]
CN1CCN([C@@H]2CCCN(c3nnc(C(N)=O)c(Nc4ccc(N5CCN(CC#Cc6ccc7c8c(cccc68)C(=O)N7C6CCC(=O)NC6=O)CC5)c(F)c4)n3)C2)C1=O (stereo partly drawn) [Compound 248, 5-((4-(4-(3-(1-(2,6-dioxopiperidin-3-yl)-2-oxo-1,2-dihydrobenzo[cd]indol-6-yl)propan-2-yn-1-yl)piperazin-1-yl)-3-fluorophenyl)amino)-3-((R)-3-(3-methyl-2-oxoimidazolidin-1-yl)piperidin-1-yl)-1,2,4-triazin-6-carboxamide]
CN1CCN(C2CC3CC2N(c2nnc(C(N)=O)c(Nc4ccc(C5(C)CCN(C6CCN(c7ccc8c(c7)C(=O)N(C7CCC(=O)NC7=O)C8=O)CC6)CC5)cc4)n2)C3)C1=O (stereo not drawn) [Compound 104, 5-((4-(1′-(2-(2,6-dioxopiperidin-3-yl)-1,3-dioxoisoindol-5-yl)-4-methyl-[1,4′-bipiperidin]-4-yl)phenyl)amino)-3-(6-(3-methyl-2-oxoimidazolin-1-yl)-2-azabicyclo[2.2.1]heptan-2-yl)-1,2,4-triazin-6-carboxamide]
CN1CCN(C2CCCN(c3nnc(C(N)=O)c(Nc4ccc(N5CCC(N6CCN(CC#Cc7ccc8c(c7)CN(C7CCC(=O)NC7=O)C8=O)CC6)CC5)cc4)n3)C2)C1=O (stereo not drawn) [Compound 084]
